Peptide text beside a SMILES is read from it.
System: T-cells in HAM/TSP patient PBMC
Experiment: Ex vivo spontaneous T-cell proliferation assay using HAM/TSP peripheral blood
Assay type: cell-based, human
Settings: HAM/TSP peripheral blood ex vivo culture
Method: Proliferation assays were performed on HAM/TSP patient blood samples with and without the addition of BNZ-γ. These assays evaluated the ability of BNZ-γ to block the function of cytokines, such as IL-2 and IL-15, present in the ex vivo HAM/TSP patient blood culture and prevent spontaneous T-cell proliferation in these samples.
In an ex vivo spontaneous T-cell proliferation assay, PBMC from HAM/TSP patient was cultured at 1×10(6) cells per well of a 96 well plate in RPMI-10% FCS. Increasing concentrations of BNZ-γ peptide were added to each well. As a control, an irrelevant peptide was used in similar fashion. The cells were incubated in a 37° C. CO2 incubator for 3, 4, and 6 days. The amount of 1 μCi of ^3H-thymidine was added to the cells. After an additional 6 hour incubation, cells were harvested their proliferation rate was measured. As indicated in FIG. 4A-FIG. 4D, BNZ-γ peptide inhibits the spontaneous proliferation of T-cells in HAM/TSP culture at a concentration of about 1 μg/ml.
Other immunological markers were additionally measured in this assay. The percentage of the viral specific CD8 cells was measured during the ex vivo culture using viral protein tetramers. The population of CD4+CD25+ cells, a marker of T-cell activation, as well as Ki67 staining, a marker of T-cell proliferation, was monitored in a flow cytometry assay.

`CC[C@H](C)[C@H](N)C(=O)N[C@@H](CCCCN)C(=O)N[C@@H](CCC(=O)O)C(=O)N[C@@H](Cc1ccccc1)C(=O)N[C@@H](CC(C)C)C(=O)N[C@@H](CCC(N)=O)C(=O)N[C@@H](CCCNC(=N)N)C(=O)N[C@@H](Cc1ccccc1)C(=O)N[C@H](C(=O)N[C@@H](Cc1c[nH]cn1)C(=O)N[C@H](C(=O)N[C@H](C(=O)N[C@@H](CCC(N)=O)C(=O)N[C@@H](CO)C(=O)N[C@H](C(=O)N[C@H](C(=O)N[C@@H](CC(N)=O)C(=O)N[C@H](C(=O)N[C@@H](CO)C(=O)O)[C@@H](C)O)[C@@H](C)CC)[C@@H](C)CC)C(C)C)[C@@H](C)CC)[C@@H](C)CC` [BNZ-γ, I-K-E-F-L-Q-R-F-I-H-I-V-Q-S-I-I-N-T-S] (H-IKEFLQRFIHIVQSIINTS-OH) was tested, and the “percent of live cells by Guava staining” value was “not impacted”.

Source: patent US10030059B2, “Modulators of gamma-C-cytokine activity” (Bioniz, LLC, priority 2015, dated 2018)
